Experimental data reported in patent US8883821B2, “Substituted pyrazolo[3,4-b]pyridines as medicaments” (Pierre Fabre Medicament, priority 2011, dated 2014).

Tested on: human anaplastic large-cell lymphoma (ALCL) tumor model
Test: Antitumor activity in vivo, ALCL tumors grafted subcutaneously in mice, oral daily dosing
Conditions: mice with subcutaneous ALCL tumors, daily schedule, animals weighed
Procedure: Pharmacological Activity In Vivo
The compounds were administered orally at various doses on a daily schedule to mice with ALCL tumors grafted subcutaneously. Tumor size was measured regularly during the study and the animals were weighed several times per week in order to identify any adverse effects. A compound is declared active if it induces inhibition of ALCL tumor growth by at least 58%.

| Structure (SMILES) | adverse effects / tolerance in vivo |
| --- | --- |
| CN1CCN(c2ccc(C(=O)Nc3n[nH]c4ncc(Sc5cc(F)cc(F)c5)cc34)c(NC3CCOCC3)c2)CC1 [Example 30, N-(5-(3,5-difluorophenylthio)-1-H-pyrazolo[3,4-b]pyridine-3-yl)-4-(4-methylpiperazine-1-yl)-2-(tetrahydro-2H-pyran-4-ylamino)benzamide] | no adverse effects |
| CN1CCN(c2ccc(C(=O)Nc3n[nH]c4ncc(Cc5cc(F)cc(F)c5)cc34)c(NC3CCOCC3)c2)CC1 [Example 30-9, N-(5-(3,5-difluorobenzyl)-1H-pyrazolo[3,4-b]pyridin-3-yl)-4-(4-methylpiperazin-1-yl)-2-(tetrahydro-2H-pyran-4-ylamino)benzamide] | no adverse effects |
